Test results reported in publication PMC7918798, “Coumarins from Seseli devenyense Simonk.: Isolation by Liquid–Liquid Chromatography and Potential Anxiolytic Activity Using an In Vivo Zebrafish Larvae Model” (International Journal of Molecular Sciences, 2021).

Columns and labels:
GABAA receptor = conditions: cited from earlier work; for influence on GABAA receptor: compared with phellopterin
GABA/BDZ receptor = system: GABA/BDZ receptor; parameters: method as in PMID 8971802; conditions: cited from earlier work
animal model = conditions: cited from earlier work; for anxiolytic activity (percentage of time and number of arms entries in the open arm): elevated plus maze
5-dpf zebrafish larvae [1] = assay: Zebrafish larvae 40 min continuous illumination: spontaneous locomotor activity and thigmotaxis (Phase 1); type: in vivo, Danio rerio; conditions: for spontaneous locomotor activity (average distance moved): 40 min continuous illumination
Description: (§1) The research protocol was adopted after Schnorr et al. (2012). The anxiolytic activity was evaluated in 24-well plates. The inner and outer zones of the well were delineated according to Schnorr et al. (2012). […] It could be also described as decreasing thigmotaxis. 1% DMSO in E3 solution was used as the negative control, 10 μM diazepam was used as the positive control. 32 larvae were used for each concentration.
(§2) The experimental procedure was divided into three stages: • (a) Preincubation: larvae were pre-incubated in a 1500 μL solution of tested compounds in individual wells of a 24-well plate at 28.5 °C, in dark, for 30 min. • (b) Acclimatization (min 0–10): plates were placed in an automated video recording bench station (ViewPoint, Lyon, France). Larvae were allowed to acclimatize to the test apparatus for 10 min. During this period, lights were kept on. • (c) Visual motor challenge (min 11–95): this stage experiment was divided into two phases: Phase 1—continuous illumination: larvae were subjected to continuous light for 40 min, with the purpose to determine the spontaneous locomotor activity and thigmotaxis behavior (before applying the factor causing the anxiety). Phase 2—light/dark transition: larvae were subjected to three cycles, each involving the 10-min lighting phase (continuous light) and the 5-min dark phase (anxiogenic factor).

5-dpf zebrafish larvae [2] = assay: Zebrafish larvae light/dark transition challenge: locomotor activity and thigmotaxis (anxiolytic activity assay, Phase 2); type: in vivo, Danio rerio; conditions: for distance moved by the larvae in the central arena / time spent in the central area: dark phase vs light phase, concentration not stated; for anxiolytic activity (authors' overall statement): zebrafish larvae model
Description: as §1, §2

[3] = Shake-flask partition coefficient in HEMWat biphasic solvent systems; type: physicochemical
Description: The screening for suitable biphasic solvent systems to isolate the target coumarins from Seseli devenyense methanolic fruit extract (SDMFE) was performed by shake-flask experiments. The partition coefficient (Pi), defined as the ratio of the concentration of a solute in the stationary phase to its concentration in the mobile phase, was used as the screening parameter. The experimental protocol was previously descried by Widelski et al. (2018). Briefly, 1 mg of crude extract was dissolved in 4 mL of biphasic solvent systems obtained by mixing various volumes of hexane, ethyl acetate, methanol and water (HEMWat). After vigorous shaking, the flasks were left until the complete separation of the layers. Then, equal volumes of the upper and lower phase (0.5 mL) were taken, evaporated to dryness, dissolved again in methanol (1.0 mL) and analyzed by HPLC-DAD analysis, as descried below.
The preliminary analysis of the SDMFE, determination of the partition coefficient values and purity of collected fractions were assessed by HPLC-DAD. The HPLC-DAD analyses were performed on a Shimadzu HPLC (Shimadzu, Tokyo, Japan) equipped with automatic degasser (DGU-20A3R), quaternary pump (LC-20AD), auto-sampler (SIL-20AHT) and diode array detector (SPD-M20A). The separations were carried out on an Agilent Zorbax Eclipse XDB-C18 (Agilent, Santa Clara, CA, USA) (250 mm × 4.6 mm, 5 μm) column with a mobile phase consisting of water (solvent A) and methanol (solvent B). The following gradient was applied: 0 min: 50% B; 5 min: 60% B; 25 min: 80% B; 30–35 min: 100% B. The flow-rate was 1 mL/min; the column temperature was set at 25 °C. The injection volume of sample was 10 μL and detection was carried out at 320 nm.

mice = conditions: 5 mg/kg; cited from earlier work
[4] = parameters: method as in PMID 23803166; conditions: cited from earlier work
murine model = system: murine model; parameters: method as in PMID 33049351; conditions: cited from earlier work
zebrafish = system: zebrafish; parameters: method as in PMID 33049351; conditions: zebrafish model; cited from earlier work
[5] = 40 min continuous illumination vs DMSO-treated group, 12.5 µM
[6] = dark phase vs DMSO-treated group in dark phase, 12.5 μM
[7] = dark phase vs DMSO-treated group in dark phase, 25 μM
[8] = dark phase vs DMSO-treated group in dark phase, 50 μM
[9] = dark phase vs light phase within same group, 12.5 μM
[10] = dark phase vs light phase within same group, 25 μM
[11] = light phase vs DMSO-treated group in light phase, 12.5 μM
[12] = light phase vs DMSO-treated group in light phase, 50 μM
[13] = dark phase vs DMSO-treated group in dark phase, 9 μM
[14] = dark phase vs light phase within same group, 9 μM
[15] = dark phase vs light phase within same group, 15 μM
[16] = dark phase vs light phase within same group, 30 μM

Structure (SMILES): COc1c2ccoc2cc2oc(=O)ccc12 [bergapten]
- influence on GABAA receptor (GABAA receptor): weaker influence

Structure (SMILES): COc1c2ccoc2c(OC[C@H]2OC2(C)C)c2oc(=O)ccc12 [byakangelicol]
- mode of action at GABA/BDZ receptor (GABA/BDZ receptor): partial agonists

Structure (SMILES): COc1cc2cc(Oc3ccc4ccc(=O)oc4c3)c(=O)oc2cc1O [daphnoretin]
- anxiolytic activity (animal model; rodent model of anxiety, tested on EPM): significant anxiolytic activity

Structure (SMILES): CC(C)=CCOc1c2occc2cc2ccc(=O)oc12 [imperatorin]
- anxiolytic activity (percentage of time and number of arms entries in the open arm) (animal model): significant anxiolytic activity
- influence on GABAA receptor (GABAA receptor): weaker influence

Structure (SMILES): CC(C)=CCOc1c2ccoc2cc2oc(=O)ccc12 [isoimperatorin]
- anxiolytic activity (percentage of time and number of arms entries in the open arm) (animal model): significant anxiolytic activity

Structure (SMILES): C/C=C(/C)C(=O)O[C@H]1[C@@H](O)c2c(ccc3ccc(=O)oc23)OC1(C)C [isolaserpitin]
- percentage of distance moved in the central arena (5-dpf zebrafish larvae [1]; [5]): increased
- percentage of time spent in the central arena (5-dpf zebrafish larvae [1]; [5]): increase
- percentage of distance moved in the central arena (5-dpf zebrafish larvae [1]; 40 min continuous illumination vs DMSO-treated group, 50 µM): increased
- spontaneous locomotor activity (average distance moved) (5-dpf zebrafish larvae [1]; all concentrations (12.5, 25, 50 µM)): has not influenced
- locomotor activity (average distance moved per 1-min time bin) (5-dpf zebrafish larvae [2]; [6]): significant increases
- percentage of distance moved in central area (5-dpf zebrafish larvae [2]; [6]): significant increases
- percentage of time spent in central area (5-dpf zebrafish larvae [2]; [6]): significant increases
- locomotor activity (average distance moved per 1-min time bin) (5-dpf zebrafish larvae [2]; [7]): significant increases
- percentage of distance moved in central area (5-dpf zebrafish larvae [2]; [7]): significant increases
- percentage of time spent in central area (5-dpf zebrafish larvae [2]; [7]): significant increases
- locomotor activity (average distance moved per 1-min time bin) (5-dpf zebrafish larvae [2]; [8]): significant increases
- percentage of distance moved in central area (5-dpf zebrafish larvae [2]; [8]): significant increases
- percentage of time spent in central area (5-dpf zebrafish larvae [2]; [8]): significant increases
- percentage of distance moved in central area (5-dpf zebrafish larvae [2]; [9]): increase
- percentage of time spent in central area (5-dpf zebrafish larvae [2]; [9]): increase
- percentage of distance moved in central area (5-dpf zebrafish larvae [2]; [10]): increase
- percentage of time spent in central area (5-dpf zebrafish larvae [2]; [10]): increase
- percentage of distance moved in central area (5-dpf zebrafish larvae [2]; dark phase vs light phase within same group, 50 μM): increase
- distance moved by the larvae in the central arena (5-dpf zebrafish larvae [2]): significantly increased
- time spent in the central area (5-dpf zebrafish larvae [2]): significantly increased
- locomotor activity (average distance moved per 1-min time bin) (5-dpf zebrafish larvae [2]; [11]): significant increase
- percentage of distance moved in central area (5-dpf zebrafish larvae [2]; [11]): significant increase
- percentage of time spent in central area (5-dpf zebrafish larvae [2]; [11]): significant increase
- locomotor activity (average distance moved per 1-min time bin) (5-dpf zebrafish larvae [2]; light phase vs DMSO-treated group in light phase, 25 μM): significant increase
- locomotor activity (average distance moved per 1-min time bin) (5-dpf zebrafish larvae [2]; [12]): significant increase
- percentage of distance moved in central area (5-dpf zebrafish larvae [2]; [12]): significant increase
- percentage of time spent in central area (5-dpf zebrafish larvae [2]; [12]): significant increase
- anxiolytic activity (authors' overall statement) (5-dpf zebrafish larvae [2]): higher
- Partition Coefficients (Pi) ([3]; solvent system II, hexane/ethyl acetate/methanol/water 6/5/6/5 (v/v/v/v)): 1.01

Structure (SMILES): CCCCCCCC(=O)O[C@H]1Cc2c(ccc3ccc(=O)oc23)OC1(C)C [octanoyllomatin]
- spontaneous locomotor activity (average distance moved) (5-dpf zebrafish larvae [1]; all concentrations (9, 15, 30 µM)): has not influenced
- percentage of distance moved in central area (5-dpf zebrafish larvae [2]; [13]): significant increases
- percentage of time spent in central area (5-dpf zebrafish larvae [2]; [13]): significant increases
- percentage of time spent in central area (5-dpf zebrafish larvae [2]; dark phase vs DMSO-treated group in dark phase, 15 μM): significant increases
- locomotor activity (average distance moved per 1-min time bin) (5-dpf zebrafish larvae [2]; dark phase vs DMSO-treated group in dark phase, 30 μM): significant decreases
- locomotor activity (average distance moved per 1-min time bin) (5-dpf zebrafish larvae [2]; [14]): increase
- percentage of distance moved in central area (5-dpf zebrafish larvae [2]; [14]): increase
- percentage of time spent in central area (5-dpf zebrafish larvae [2]; [14]): increase
- locomotor activity (average distance moved per 1-min time bin) (5-dpf zebrafish larvae [2]; [15]): increase
- percentage of distance moved in central area (5-dpf zebrafish larvae [2]; [15]): increase
- percentage of time spent in central area (5-dpf zebrafish larvae [2]; [15]): increase
- percentage of distance moved in central area (5-dpf zebrafish larvae [2]; [16]): increase
- percentage of time spent in central area (5-dpf zebrafish larvae [2]; [16]): increase
- distance moved by the larvae in the central arena (5-dpf zebrafish larvae [2]): significantly increased
- time spent in the central area (5-dpf zebrafish larvae [2]): significantly increased
- percentage of time spent in central area (5-dpf zebrafish larvae [2]; light phase vs DMSO-treated group in light phase, 30 μM): decrease
- anxiolytic activity (authors' overall statement) (5-dpf zebrafish larvae [2]): highest anxiolytic activity
- Partition Coefficients (Pi) ([3]; solvent system III, hexane/ethyl acetate/methanol/water 5/2/5/2 (v/v/v/v)): 2.01

Structure (SMILES): CC(C)=CCCC(C)=CCc1cc2ccc(=O)oc2cc1O [ostruthin, 6-(3,7-dimethyl-2,6-octadienyl)-7-hydroxycoumarin]
- anxiolytic effect (mice): anxiolytic effect

Structure (SMILES): COc1c2ccoc2c(OCC=C(C)C)c2oc(=O)ccc12 [phellopterin]
- mode of action at GABA/BDZ receptor (GABA/BDZ receptor): partial agonists
- IC50 (GABAA receptor): 360 nM

Structure (SMILES): O=c1ccc2cc3ccoc3cc2o1 [psolaren]
- mode of action at GABA/BDZ receptor (GABA/BDZ receptor): partial agonists

Structure (SMILES): COc1cc2ccc(=O)oc2cc1O [scopoletin, 7-hydroxy-6-methoxycoumarin]
- anxiolytic effects [4]: significant sustained anxiolytic effects

Structure (SMILES): O=c1ccc2ccc(O)cc2o1 [umbelliferone, 7-hydroxycoumarin]
- anxiolytic effects [4]: significant sustained anxiolytic effects

Structure (SMILES): COc1c2occc2cc2ccc(=O)oc12 [xanthotoxin]
- effect on anxiety behaviors (thigmotaxis) (murine model): reversed U-shape effect
- effect on anxiety behaviors (thigmotaxis) (zebrafish): reversed U-shape effect
